Laboratory results as given in the supplement of paper PMC12076712.
± gives the standard deviation of the averaged measurements.

Legend:
Assay in all cases: pIC50, competition of probe 3 labelling in live cells
Conditions in all cases: cell material: Jurkat cells
CAMK1D = CAMK1D (UniProt Q8IU85)
CDK4 = CDK4 (UniProt P11802)
UniProt P06493 = target: UniProt P06493
UniProt P51812 = target: UniProt P51812
UniProt Q02750 = target: UniProt Q02750
BLK = BLK (UniProt P51451)
CAMKK2 = CAMKK2 (UniProt Q96RR4)
CLK1 = CLK1 (UniProt P49759)
CTSA = CTSA (UniProt P10619)
FTO = FTO (UniProt Q9C0B1)
RABGGTB = RABGGTB (UniProt P53611)
SPR = SPR (UniProt P35270)
UniProt O75582 = target: UniProt O75582
UniProt P27361 = target: UniProt P27361
UniProt Q13188 = target: T1, UniProt Q13188
T1 sequence (whole entry): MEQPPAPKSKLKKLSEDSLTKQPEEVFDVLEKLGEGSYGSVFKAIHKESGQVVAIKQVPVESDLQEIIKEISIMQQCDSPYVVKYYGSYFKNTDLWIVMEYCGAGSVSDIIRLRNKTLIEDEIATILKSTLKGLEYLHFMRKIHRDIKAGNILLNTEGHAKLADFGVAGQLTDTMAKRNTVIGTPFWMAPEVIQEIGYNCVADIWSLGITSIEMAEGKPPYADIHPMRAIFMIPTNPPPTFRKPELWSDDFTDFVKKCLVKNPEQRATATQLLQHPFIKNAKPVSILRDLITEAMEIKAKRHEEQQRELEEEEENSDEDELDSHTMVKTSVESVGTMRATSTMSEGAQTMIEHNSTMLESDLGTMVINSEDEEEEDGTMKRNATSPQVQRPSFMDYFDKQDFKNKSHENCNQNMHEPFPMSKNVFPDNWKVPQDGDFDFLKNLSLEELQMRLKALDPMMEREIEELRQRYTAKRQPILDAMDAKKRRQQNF

UniProt Q15831 = target: T2, UniProt Q15831
T2 sequence (whole entry): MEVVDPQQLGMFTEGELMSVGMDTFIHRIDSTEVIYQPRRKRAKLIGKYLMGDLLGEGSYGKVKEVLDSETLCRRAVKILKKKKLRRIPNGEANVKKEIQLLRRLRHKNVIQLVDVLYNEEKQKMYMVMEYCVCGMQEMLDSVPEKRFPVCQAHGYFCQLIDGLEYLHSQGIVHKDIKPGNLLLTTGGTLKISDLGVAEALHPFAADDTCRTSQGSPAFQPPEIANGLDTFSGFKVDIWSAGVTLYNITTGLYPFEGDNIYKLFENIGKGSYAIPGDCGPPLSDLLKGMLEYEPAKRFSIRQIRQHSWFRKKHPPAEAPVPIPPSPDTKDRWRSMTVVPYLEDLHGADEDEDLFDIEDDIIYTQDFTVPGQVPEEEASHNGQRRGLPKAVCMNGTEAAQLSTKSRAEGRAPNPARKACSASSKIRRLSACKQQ

Sequence of UniProt Q02750 (Q02750 whole entry): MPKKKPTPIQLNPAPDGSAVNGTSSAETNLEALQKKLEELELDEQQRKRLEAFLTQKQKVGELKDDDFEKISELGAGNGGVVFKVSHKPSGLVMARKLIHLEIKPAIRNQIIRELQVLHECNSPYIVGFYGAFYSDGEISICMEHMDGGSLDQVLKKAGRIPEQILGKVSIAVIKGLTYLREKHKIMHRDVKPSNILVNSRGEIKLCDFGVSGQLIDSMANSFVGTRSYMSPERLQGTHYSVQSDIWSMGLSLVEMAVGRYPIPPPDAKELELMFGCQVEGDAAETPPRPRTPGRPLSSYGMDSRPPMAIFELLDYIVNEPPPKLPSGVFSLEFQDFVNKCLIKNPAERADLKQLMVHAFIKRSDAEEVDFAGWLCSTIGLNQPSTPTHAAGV
Sequence of CLK1 (P49759 whole entry, looked up): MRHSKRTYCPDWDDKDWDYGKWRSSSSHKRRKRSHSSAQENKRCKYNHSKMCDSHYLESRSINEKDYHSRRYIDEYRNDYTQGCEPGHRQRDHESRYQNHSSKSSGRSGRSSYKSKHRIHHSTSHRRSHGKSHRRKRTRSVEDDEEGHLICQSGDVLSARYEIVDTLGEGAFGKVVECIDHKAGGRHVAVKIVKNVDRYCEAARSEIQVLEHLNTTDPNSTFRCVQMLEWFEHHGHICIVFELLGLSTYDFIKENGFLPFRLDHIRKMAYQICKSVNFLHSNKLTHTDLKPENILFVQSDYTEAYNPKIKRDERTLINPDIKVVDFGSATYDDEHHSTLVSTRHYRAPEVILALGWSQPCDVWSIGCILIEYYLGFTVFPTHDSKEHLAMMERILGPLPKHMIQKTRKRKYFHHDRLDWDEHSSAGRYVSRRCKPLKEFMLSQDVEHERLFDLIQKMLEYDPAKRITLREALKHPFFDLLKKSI
Sequence of CAMKK2 (Q96RR4 whole entry, looked up): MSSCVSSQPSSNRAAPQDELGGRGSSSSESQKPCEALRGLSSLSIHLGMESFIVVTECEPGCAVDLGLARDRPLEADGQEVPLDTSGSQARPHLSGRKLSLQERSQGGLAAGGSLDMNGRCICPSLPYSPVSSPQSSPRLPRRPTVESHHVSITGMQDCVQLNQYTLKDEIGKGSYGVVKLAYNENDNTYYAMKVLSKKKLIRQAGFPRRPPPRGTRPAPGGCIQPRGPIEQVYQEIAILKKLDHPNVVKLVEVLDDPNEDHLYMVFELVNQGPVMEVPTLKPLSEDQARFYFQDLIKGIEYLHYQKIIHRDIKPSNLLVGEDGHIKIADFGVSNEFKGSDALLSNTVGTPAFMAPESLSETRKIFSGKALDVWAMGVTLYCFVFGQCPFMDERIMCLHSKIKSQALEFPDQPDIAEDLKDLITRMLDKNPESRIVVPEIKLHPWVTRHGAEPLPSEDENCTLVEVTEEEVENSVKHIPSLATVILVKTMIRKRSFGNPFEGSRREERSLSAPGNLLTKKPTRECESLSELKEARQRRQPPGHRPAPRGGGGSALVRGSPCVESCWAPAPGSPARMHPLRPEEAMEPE
Sequence of UniProt P06493 (P06493 whole entry, looked up): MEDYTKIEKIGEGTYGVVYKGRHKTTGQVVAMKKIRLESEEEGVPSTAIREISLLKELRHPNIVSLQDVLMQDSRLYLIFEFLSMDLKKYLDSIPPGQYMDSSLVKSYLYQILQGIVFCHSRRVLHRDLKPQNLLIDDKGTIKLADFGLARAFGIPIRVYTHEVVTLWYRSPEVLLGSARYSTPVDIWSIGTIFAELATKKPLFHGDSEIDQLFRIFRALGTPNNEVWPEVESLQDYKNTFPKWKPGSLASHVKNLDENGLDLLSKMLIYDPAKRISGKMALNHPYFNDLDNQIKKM
Sequence of SPR (P35270 whole entry, looked up): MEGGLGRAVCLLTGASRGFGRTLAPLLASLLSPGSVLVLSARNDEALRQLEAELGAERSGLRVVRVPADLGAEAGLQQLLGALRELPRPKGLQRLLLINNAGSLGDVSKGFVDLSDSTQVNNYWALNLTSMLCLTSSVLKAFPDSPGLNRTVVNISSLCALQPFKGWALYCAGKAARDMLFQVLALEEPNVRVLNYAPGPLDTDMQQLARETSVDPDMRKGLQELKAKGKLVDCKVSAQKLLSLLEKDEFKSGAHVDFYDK
Sequence of UniProt P51812 (P51812 whole entry): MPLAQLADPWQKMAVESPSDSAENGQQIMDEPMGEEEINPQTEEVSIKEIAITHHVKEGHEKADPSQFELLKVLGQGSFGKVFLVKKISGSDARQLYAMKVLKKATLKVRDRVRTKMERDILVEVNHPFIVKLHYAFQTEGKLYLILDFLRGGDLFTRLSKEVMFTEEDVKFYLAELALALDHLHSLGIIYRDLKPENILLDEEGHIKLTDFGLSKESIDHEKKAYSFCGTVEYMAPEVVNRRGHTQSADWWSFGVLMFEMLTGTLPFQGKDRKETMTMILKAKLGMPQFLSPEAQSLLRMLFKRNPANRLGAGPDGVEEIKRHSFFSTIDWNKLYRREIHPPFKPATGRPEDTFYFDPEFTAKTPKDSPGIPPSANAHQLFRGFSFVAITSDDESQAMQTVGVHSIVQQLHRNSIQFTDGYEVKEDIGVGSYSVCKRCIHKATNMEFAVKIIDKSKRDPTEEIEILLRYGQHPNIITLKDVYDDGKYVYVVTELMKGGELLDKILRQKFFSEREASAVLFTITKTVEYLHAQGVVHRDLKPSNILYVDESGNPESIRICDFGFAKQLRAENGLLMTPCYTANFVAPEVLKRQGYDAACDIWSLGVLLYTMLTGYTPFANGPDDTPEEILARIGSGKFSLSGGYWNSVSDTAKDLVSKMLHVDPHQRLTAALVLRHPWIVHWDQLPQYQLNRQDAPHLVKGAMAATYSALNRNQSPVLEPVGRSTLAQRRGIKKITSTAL
Sequence of CAMK1D (Q8IU85 whole entry, looked up): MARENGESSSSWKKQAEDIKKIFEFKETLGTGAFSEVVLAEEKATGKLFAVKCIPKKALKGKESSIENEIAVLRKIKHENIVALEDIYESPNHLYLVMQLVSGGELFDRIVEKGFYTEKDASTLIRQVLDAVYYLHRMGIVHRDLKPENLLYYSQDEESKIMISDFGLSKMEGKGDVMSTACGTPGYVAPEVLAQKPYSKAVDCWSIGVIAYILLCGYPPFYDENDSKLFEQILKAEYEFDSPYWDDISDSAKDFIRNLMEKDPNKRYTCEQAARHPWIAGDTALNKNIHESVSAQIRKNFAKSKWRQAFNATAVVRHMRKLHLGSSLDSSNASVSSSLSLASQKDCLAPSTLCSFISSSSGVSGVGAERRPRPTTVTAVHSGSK
Sequence of CDK4 (P11802 whole entry): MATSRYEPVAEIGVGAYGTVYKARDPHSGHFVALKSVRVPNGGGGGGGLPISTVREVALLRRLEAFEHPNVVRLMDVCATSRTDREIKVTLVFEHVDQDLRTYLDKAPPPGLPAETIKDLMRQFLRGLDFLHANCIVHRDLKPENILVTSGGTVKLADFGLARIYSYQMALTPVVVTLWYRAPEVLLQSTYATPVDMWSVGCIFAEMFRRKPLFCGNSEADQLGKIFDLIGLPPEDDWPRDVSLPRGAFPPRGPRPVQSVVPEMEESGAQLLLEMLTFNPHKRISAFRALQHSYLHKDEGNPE
Sequence of RABGGTB (P53611 whole entry): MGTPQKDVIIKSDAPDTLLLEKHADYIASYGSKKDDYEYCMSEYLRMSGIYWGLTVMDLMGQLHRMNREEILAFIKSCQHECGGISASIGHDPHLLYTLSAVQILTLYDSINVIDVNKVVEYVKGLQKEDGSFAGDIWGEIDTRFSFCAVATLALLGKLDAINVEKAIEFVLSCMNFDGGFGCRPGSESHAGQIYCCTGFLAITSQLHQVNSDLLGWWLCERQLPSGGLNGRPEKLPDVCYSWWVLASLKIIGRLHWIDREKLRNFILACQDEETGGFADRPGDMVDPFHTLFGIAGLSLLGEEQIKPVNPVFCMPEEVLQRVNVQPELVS
Sequence of FTO (Q9C0B1 whole entry, looked up): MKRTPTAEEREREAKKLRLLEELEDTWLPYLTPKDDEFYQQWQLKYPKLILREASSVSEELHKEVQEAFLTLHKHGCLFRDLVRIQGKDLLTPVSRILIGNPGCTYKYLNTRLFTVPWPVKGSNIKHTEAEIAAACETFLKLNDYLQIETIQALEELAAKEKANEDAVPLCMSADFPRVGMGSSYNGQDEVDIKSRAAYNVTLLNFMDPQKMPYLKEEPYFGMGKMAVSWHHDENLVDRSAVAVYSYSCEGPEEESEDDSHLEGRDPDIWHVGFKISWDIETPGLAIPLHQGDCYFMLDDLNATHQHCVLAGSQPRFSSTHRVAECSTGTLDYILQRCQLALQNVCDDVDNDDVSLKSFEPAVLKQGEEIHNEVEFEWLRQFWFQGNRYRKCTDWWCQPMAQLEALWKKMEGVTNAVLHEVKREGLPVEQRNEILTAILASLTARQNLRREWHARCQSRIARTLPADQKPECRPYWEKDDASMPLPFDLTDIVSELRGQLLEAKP
Sequence of BLK (P51451 whole entry, looked up): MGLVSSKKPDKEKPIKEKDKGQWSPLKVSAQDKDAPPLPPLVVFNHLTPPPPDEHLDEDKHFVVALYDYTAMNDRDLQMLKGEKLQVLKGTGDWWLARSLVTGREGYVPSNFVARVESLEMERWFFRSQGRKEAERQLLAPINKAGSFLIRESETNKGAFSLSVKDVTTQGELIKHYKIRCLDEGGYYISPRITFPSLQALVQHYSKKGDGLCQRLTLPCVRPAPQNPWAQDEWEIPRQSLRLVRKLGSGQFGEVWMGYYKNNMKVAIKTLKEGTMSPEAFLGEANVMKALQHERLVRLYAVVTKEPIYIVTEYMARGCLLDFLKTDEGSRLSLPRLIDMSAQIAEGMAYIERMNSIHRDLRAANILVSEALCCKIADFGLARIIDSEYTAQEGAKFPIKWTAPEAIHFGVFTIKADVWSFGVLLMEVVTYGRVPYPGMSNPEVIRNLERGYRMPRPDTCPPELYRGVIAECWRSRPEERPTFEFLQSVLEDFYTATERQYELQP

Row | Structure (SMILES) | pIC50 (CAMK1D) | pIC50 (CDK4) | pIC50 (UniProt P06493) | pIC50 (UniProt P51812) | pIC50 (UniProt Q02750) | pIC50 (BLK) | pIC50 (CAMKK2) | pIC50 (CLK1) | pIC50 (CTSA) | pIC50 (FTO) | pIC50 (RABGGTB) | pIC50 (SPR) | pIC50 (UniProt O75582) | pIC50 (UniProt P27361) | pIC50 (UniProt Q13188) | pIC50 (UniProt Q15831)
1 | CC#CC(=O)Nc1ccc2ncnc(Nc3cccc(Br)c3)c2c1 [EKI-785] | < 4.52 | < 4.52 | < 4.52 | < 4.52 | < 4.52 |  |  |  |  |  |  |  |  |  |  | 
2 | CCc1cnn2c(NCc3ccc[n+]([O-])c3)cc(N3CCCC[C@H]3CCO)nc12 [dinaciclib] |  |  |  |  |  | < 4.52 | < 4.52 | < 4.52 | < 4.52 | < 4.52 | < 4.52 | < 4.52 | < 4.52 | < 4.52 | < 4.52 | 5.24 ± 0.12
